Laboratory results: ChEMBL document CHEMBL1201862, “PubChem BioAssay data set” (2004)
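Assay format: 96-well plates, 48-hour exposure. GI50 = concentration required for 50% inhibition of growth.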 The source made the active and inactive calls. No stated cut-off is given here; in the data, active = GI50 up to about 1.1 µM and inactive = higher.

Columns and labels:
Assay in all cases: NCI tumour cell line growth inhibition, 48 h
NCI-H23 = system: NCI-H23
CCRF-CEM = system: CCRF-CEM
MDA-MB-231 = system: MDA-MB-231
SF-295 = system: SF-295
T47D = system: T47D
Malme-3M = system: Malme-3M
SK-MEL-5 = system: SK-MEL-5
DU-145 = system: DU-145
SW-620 = system: SW-620
UACC-62 = system: UACC-62
COLO 205 = system: COLO 205
LOX IMVI = system: LOX IMVI
SF-268 = system: SF-268
HL-60 = system: HL-60
MDA-N = system: MDA-N
KM12 = system: KM12
K562 = system: K562
RPMI-8226 = system: RPMI-8226
UACC-257 = system: UACC-257
M14 = system: M14
RXF 393 = system: RXF 393
SK-MEL-28 = system: SK-MEL-28
786-0 = system: 786-0
A549 = system: A549
IGROV-1 = system: IGROV-1
HCT-15 = system: HCT-15
SR = system: SR
PC-3 = system: PC-3
OVCAR-8 = system: OVCAR-8
HOP-62 = system: HOP-62
MOLT-4 = system: MOLT-4
SNB-75 = system: SNB-75
EKVX = system: EKVX
SN12C = system: SN12C
HT-29 = system: HT-29
MCF7 = system: MCF7
CAKI-1 = system: CAKI-1
TK-10 = system: TK-10
HCC 2998 = system: HCC 2998
SK-OV-3 = system: SK-OV-3
NCI/ADR-RES = system: NCI/ADR-RES
ACHN = system: ACHN
SF-539 = system: SF-539
NCI-H460 = system: NCI-H460
HCT-116 = system: HCT-116
U-251 = system: U-251
OVCAR-4 = system: OVCAR-4
MDA-MB-435 = system: MDA-MB-435
Hs-578T = system: Hs-578T
A498 = system: A498
SNB-19 = system: SNB-19
OVCAR-5 = system: OVCAR-5
NCI-H226 = system: NCI-H226
UO-31 = system: UO-31
HOP-92 = system: HOP-92

Q: With `C=CCc1c(O)c2nsnc2c2nsnc12` as the compound, how does the GI50 (NCI-H23) read?
A: > 10 µM (inactive)

Q: And the GI50 (CCRF-CEM)?
A: > 10 µM (inactive)

Q: What about the GI50 (MDA-MB-231) of the same compound?
A: > 10 µM (inactive)

Q: What about the GI50 (SF-295) of the same compound?
A: > 10 µM (inactive)

Q: What about the GI50 (T47D) of the same compound?
A: > 10 µM (inactive)

Q: What about the GI50 (Malme-3M) of the same compound?
A: > 10 µM (inactive)

Q: And the GI50 (SK-MEL-5)?
A: > 10 µM (inactive)

Q: What about the GI50 (DU-145) of the same compound?
A: > 10 µM (inactive)

Q: And the GI50 (SW-620)?
A: > 10 µM (inactive)

Q: And the GI50 (UACC-62)?
A: > 10 µM (inactive)

Q: And the GI50 (COLO 205)?
A: > 10 µM (inactive)

Q: And the GI50 (LOX IMVI)?
A: > 10 µM (inactive)

Q: And the GI50 (SF-268)?
A: > 10 µM (inactive)

Q: What about the GI50 (HL-60) of the same compound?
A: > 10 µM (inactive)

Q: What about the GI50 (MDA-N) of the same compound?
A: > 10 µM (inactive)

Q: And the GI50 (KM12)?
A: > 10 µM (inactive)

Q: What about the GI50 (K562) of the same compound?
A: > 10 µM (inactive)

Q: What about the GI50 (RPMI-8226) of the same compound?
A: > 10 µM (inactive)

Q: And the GI50 (UACC-257)?
A: > 10 µM (inactive)

Q: And the GI50 (M14)?
A: > 10 µM (inactive)

Q: And the GI50 (RXF 393)?
A: > 10 µM (inactive)

Q: And the GI50 (SK-MEL-28)?
A: > 10 µM (inactive)

Q: And the GI50 (786-0)?
A: > 10 µM (inactive)

Q: What about the GI50 (A549) of the same compound?
A: > 10 µM (inactive)

Q: What about the GI50 (IGROV-1) of the same compound?
A: > 10 µM (inactive)

Q: And the GI50 (HCT-15)?
A: > 10 µM

Q: And the GI50 (SR)?
A: > 10 µM (inactive)

Q: What about the GI50 (PC-3) of the same compound?
A: > 10 µM (inactive)

Q: And the GI50 (OVCAR-8)?
A: > 10 µM (inactive)

Q: What about the GI50 (HOP-62) of the same compound?
A: > 10 µM (inactive)

Q: What about the GI50 (MOLT-4) of the same compound?
A: > 10 µM (inactive)

Q: What about the GI50 (SNB-75) of the same compound?
A: > 10 µM (inactive)

Q: What about the GI50 (EKVX) of the same compound?
A: > 10 µM (inactive)

Q: What about the GI50 (SN12C) of the same compound?
A: > 10 µM (inactive)

Q: And the GI50 (HT-29)?
A: > 10 µM (inactive)

Q: What about the GI50 (MCF7) of the same compound?
A: > 10 µM (inactive)

Q: What about the GI50 (CAKI-1) of the same compound?
A: > 10 µM (inactive)

Q: What about the GI50 (TK-10) of the same compound?
A: > 10 µM (inactive)

Q: What about the GI50 (HCC 2998) of the same compound?
A: > 10 µM (inactive)

Q: And the GI50 (SK-OV-3)?
A: > 10 µM (inactive)

Q: What does the source list for `COc1ccc(C(CC(=O)c2cccs2)C(=O)c2ccc3c(c2)OCO3)cc1` (stereo not given)?
A: GI50 (NCI-H23): > 100 µM (inactive); GI50 (CCRF-CEM): > 100 µM (inactive); GI50 (MDA-MB-231): > 100 µM (inactive); GI50 (NCI/ADR-RES): > 100 µM (inactive); GI50 (T47D): 69.5 µM (inactive); GI50 (Malme-3M): 97.7 µM (inactive); GI50 (SK-MEL-5): > 100 µM (inactive); GI50 (ACHN): > 100 µM (inactive); GI50 (SF-539): > 100 µM (inactive); GI50 (DU-145): > 100 µM (inactive); GI50 (SW-620): > 100 µM (inactive); GI50 (UACC-62): > 100 µM (inactive); GI50 (COLO 205): > 100 µM (inactive); GI50 (LOX IMVI): > 100 µM (inactive); GI50 (SF-268): > 100 µM (inactive); GI50 (HL-60): > 100 µM (inactive); GI50 (MDA-N): > 100 µM (inactive); GI50 (NCI-H460): > 100 µM (inactive); GI50 (HCT-116): > 100 µM (inactive); GI50 (U-251): > 100 µM (inactive); GI50 (OVCAR-4): > 100 µM (inactive); GI50 (KM12): > 100 µM (inactive); GI50 (K562): > 100 µM (inactive); GI50 (RPMI-8226): 59.8 µM (inactive); GI50 (UACC-257): > 100 µM (inactive); GI50 (M14): > 100 µM (inactive); GI50 (SK-MEL-28): > 100 µM (inactive); GI50 (A549): > 100 µM (inactive); GI50 (IGROV-1): > 100 µM (inactive); GI50 (HCT-15): > 100 µM; GI50 (PC-3): > 100 µM (inactive); GI50 (OVCAR-8): > 100 µM (inactive); GI50 (HOP-62): > 100 µM (inactive); GI50 (MOLT-4): > 100 µM (inactive); GI50 (MDA-MB-435): > 100 µM (inactive); GI50 (Hs-578T): > 100 µM (inactive); GI50 (SNB-75): > 100 µM (inactive); GI50 (A498): 72.1 µM (inactive); GI50 (EKVX): > 100 µM (inactive); GI50 (SN12C): > 100 µM (inactive); GI50 (MCF7): > 100 µM (inactive); GI50 (CAKI-1): > 100 µM (inactive); GI50 (TK-10): > 100 µM (inactive); GI50 (HCC 2998): > 100 µM (inactive); GI50 (SK-OV-3): > 100 µM (inactive)

Q: `Cc1ccc2ccccc2c1NC1=NCCO1` was tested. Which GI50 (NCI-H23) did it give?
A: 90.4 µM (inactive)

Q: What about the GI50 (SNB-19) of the same compound?
A: 27.2 µM (inactive)

Q: What about the GI50 (CCRF-CEM) of the same compound?
A: 70.3 µM (inactive)

Q: And the GI50 (MDA-MB-231)?
A: > 100 µM (inactive)

Q: And the GI50 (SF-295)?
A: > 100 µM (inactive)

Q: What about the GI50 (NCI/ADR-RES) of the same compound?
A: > 100 µM (inactive)

Q: And the GI50 (OVCAR-5)?
A: > 100 µM (inactive)

Q: And the GI50 (T47D)?
A: 41.7 µM (inactive)

Q: And the GI50 (Malme-3M)?
A: > 100 µM (inactive)

Q: What about the GI50 (SK-MEL-5) of the same compound?
A: 81.5 µM (inactive)

Q: And the GI50 (ACHN)?
A: 76.6 µM (inactive)

Q: What about the GI50 (SF-539) of the same compound?
A: 35.6 µM (inactive)

Q: And the GI50 (DU-145)?
A: > 100 µM (inactive)

Q: And the GI50 (SW-620)?
A: > 100 µM (inactive)

Q: What about the GI50 (UACC-62) of the same compound?
A: > 100 µM (inactive)

Q: And the GI50 (COLO 205)?
A: > 100 µM (inactive)

Q: And the GI50 (SF-268)?
A: > 100 µM (inactive)

Q: And the GI50 (HL-60)?
A: 58.5 µM (inactive)

Q: And the GI50 (NCI-H460)?
A: 33.7 µM (inactive)

Q: And the GI50 (HCT-116)?
A: 45.5 µM (inactive)

Q: And the GI50 (U-251)?
A: > 100 µM (inactive)

Q: What about the GI50 (NCI-H226) of the same compound?
A: 20.2 µM (inactive)

Q: And the GI50 (OVCAR-4)?
A: 94.6 µM (inactive)

Q: What about the GI50 (KM12) of the same compound?
A: 75.3 µM (inactive)

Q: And the GI50 (K562)?
A: 56.9 µM (inactive)

Q: What about the GI50 (RPMI-8226) of the same compound?
A: 36.2 µM (inactive)

Q: What about the GI50 (UO-31) of the same compound?
A: 27.7 µM (inactive)

Q: What about the GI50 (UACC-257) of the same compound?
A: 57.3 µM (inactive)

Q: And the GI50 (M14)?
A: > 100 µM (inactive)

Q: What about the GI50 (RXF 393) of the same compound?
A: > 100 µM (inactive)

Q: What about the GI50 (HOP-92) of the same compound?
A: 11.8 µM (inactive)

Q: And the GI50 (SK-MEL-28)?
A: > 100 µM (inactive)

Q: What about the GI50 (786-0) of the same compound?
A: > 100 µM (inactive)

Q: What about the GI50 (A549) of the same compound?
A: > 100 µM (inactive)

Q: What about the GI50 (IGROV-1) of the same compound?
A: > 100 µM (inactive)

Q: What about the GI50 (HCT-15) of the same compound?
A: > 100 µM

Q: And the GI50 (SR)?
A: 34.2 µM (inactive)

Q: And the GI50 (OVCAR-8)?
A: > 100 µM (inactive)

Q: And the GI50 (HOP-62)?
A: > 100 µM (inactive)

Q: What about the GI50 (MOLT-4) of the same compound?
A: 34 µM (inactive)

Q: And the GI50 (MDA-MB-435)?
A: > 100 µM (inactive)

Q: What about the GI50 (Hs-578T) of the same compound?
A: 24.9 µM (inactive)

Q: What about the GI50 (SNB-75) of the same compound?
A: > 100 µM (inactive)

Q: And the GI50 (EKVX)?
A: > 100 µM (inactive)

Q: What about the GI50 (SN12C) of the same compound?
A: > 100 µM (inactive)

Q: And the GI50 (HT-29)?
A: 83 µM (inactive)

Q: And the GI50 (MCF7)?
A: 82 µM (inactive)

Q: What about the GI50 (TK-10) of the same compound?
A: > 100 µM (inactive)

Q: And the GI50 (HCC 2998)?
A: 82.8 µM (inactive)

Q: And the GI50 (SK-OV-3)?
A: > 100 µM (inactive)
